Mutagenic call data for six compounds are collected here from PubChem BioAssay AID1259407 (Chemical Carcinogenesis Research Information System (CCRIS), 2018).

This data set has as its system CCRIS mutagenicity, Ames/micronucleus/aberration tests. The data set can be described thus: CCRIS mutagenicity studies.
Setting [1] is: Test System: AMES SALMONELLA TYPHIMURIUM, Strain/Indicator: TA98, Metabolic Activation: NONE, Method: PREINCUBATION
[2] abbreviates: Test System: AMES SALMONELLA TYPHIMURIUM, Strain/Indicator: TA100, Metabolic Activation: NONE, Method: PREINCUBATION
Where [3] appears, read: Test System: AMES SALMONELLA TYPHIMURIUM, Strain/Indicator: TA1535, Metabolic Activation: NONE, Method: PREINCUBATION
The mark [4] stands for this setting: Test System: AMES SALMONELLA TYPHIMURIUM, Strain/Indicator: TA1537, Metabolic Activation: NONE, Method: PREINCUBATION
Where [5] appears, read: Test System: AMES SALMONELLA TYPHIMURIUM, Strain/Indicator: TA98, Metabolic Activation: NONE, Method: STANDARD PLATE.
The mark [6] stands for this setting: Test System: AMES SALMONELLA TYPHIMURIUM, Strain/Indicator: TA100, Metabolic Activation: NONE, Method: STANDARD PLATE.

The structures appear in SMILES notation. Active and inactive are the calls of the source. No rule for the calls is given here.

As to `OCC(CBr)(CBr)CBr`, the mutagenic call is “inactive; negative” (Test System: AMES SALMONELLA TYPHIMURIUM, Strain/Indicator: TA98, Metabolic Activation: HAMSTER, LIVER, S-9, AROCLOR 1254 (10%), Method: PREINCUBATION); “inactive; negative” under setting [1]; “inactive; negative” (Test System: AMES SALMONELLA TYPHIMURIUM, Strain/Indicator: TA98, Metabolic Activation: RAT, LIVER, S-9, AROCLOR 1254 (10%), Method: PREINCUBATION); “inactive; negative” (Test System: AMES SALMONELLA TYPHIMURIUM, Strain/Indicator: TA100, Metabolic Activation: HAMSTER, LIVER, S-9, AROCLOR 1254 (10%), Method: PREINCUBATION); “inactive; negative” under setting [2]; “inactive; negative” (Test System: AMES SALMONELLA TYPHIMURIUM, Strain/Indicator: TA100, Metabolic Activation: RAT, LIVER, S-9, AROCLOR 1254 (10%), Method: PREINCUBATION). Further, the mutagenic call by setting is: (Test System: AMES SALMONELLA TYPHIMURIUM, Strain/Indicator: TA1535, Metabolic Activation: HAMSTER, LIVER, S-9, AROCLOR 1254 (10%), Method: PREINCUBATION) “active; positive”; under setting [3], “inactive; negative”; (Test System: AMES SALMONELLA TYPHIMURIUM, Strain/Indicator: TA1535, Metabolic Activation: RAT, LIVER, S-9, AROCLOR 1254 (10%), Method: PREINCUBATION) “inactive; negative”; (Test System: AMES SALMONELLA TYPHIMURIUM, Strain/Indicator: TA1537, Metabolic Activation: HAMSTER, LIVER, S-9, AROCLOR 1254 (10%), Method: PREINCUBATION) “inactive; negative”; under setting [4], “inactive; negative”; (Test System: AMES SALMONELLA TYPHIMURIUM, Strain/Indicator: TA1537, Metabolic Activation: RAT, LIVER, S-9, AROCLOR 1254 (10%), Method: PREINCUBATION) “inactive; negative”.

`CN(C(=O)CCCCl)c1snc2ccccc12`: the mutagenic call by setting is: under setting [5], “inactive; negative”; (Test System: AMES SALMONELLA TYPHIMURIUM, Strain/Indicator: TA98, Metabolic Activation: S-9, Method: STANDARD PLATE) “inactive; negative”; under setting [6], “inactive; negative”; (Test System: AMES SALMONELLA TYPHIMURIUM, Strain/Indicator: TA100, Metabolic Activation: S-9, Method: STANDARD PLATE) “inactive; negative”; (Test System: AMES SALMONELLA TYPHIMURIUM, Strain/Indicator: TA1535, Metabolic Activation: NONE, Method: STANDARD PLATE) “inactive; negative”; (Test System: AMES SALMONELLA TYPHIMURIUM, Strain/Indicator: TA1535, Metabolic Activation: S-9, Method: STANDARD PLATE) “inactive; negative”. Besides, the mutagenic call is “inactive; negative” (Test System: AMES SALMONELLA TYPHIMURIUM, Strain/Indicator: TA1537, Metabolic Activation: NONE, Method: STANDARD PLATE) and “inactive; negative” (Test System: AMES SALMONELLA TYPHIMURIUM, Strain/Indicator: TA1537, Metabolic Activation: S-9, Method: STANDARD PLATE).

Turning to `O=[N+]([O-])c1ccc(Cl)cc1Cl`, the mutagenic call is, setting by setting: (End Point: IN VITRO CHROMOSOMAL ABERRATIONS, Test System: CHL CELLS, Metabolic Activation: RAT, LIVER, S-9, SODIUM PHENOBARBITAL AND 5,6-BENZOFLAVONE) “active; positive (structural changes); authors report equivocal results for ploidy chang”; under setting [1], “inactive; negative”; (Test System: AMES SALMONELLA TYPHIMURIUM, Strain/Indicator: TA98, Metabolic Activation: RAT, LIVER, S-9, KANECHLOR 500, Method: PREINCUBATION) “inactive; negative”; under setting [2], “active; positive”; under setting [6], “inactive; negative”; (Test System: AMES SALMONELLA TYPHIMURIUM, Strain/Indicator: TA100, Metabolic Activation: RAT LIVER S-9, PHENOBARBITAL AND BETA-NAPHTHOFLAVONE, Method: PREINCUBATION) “active; positive”. The mutagenic call (Test System: AMES SALMONELLA TYPHIMURIUM, Strain/Indicator: TA100, Metabolic Activation: RAT, LIVER, S-9, KANECHLOR 500, Method: PREINCUBATION) was “active; positive”; the mutagenic call (Test System: AMES SALMONELLA TYPHIMURIUM, Strain/Indicator: TA1535, Metabolic Activation: RAT LIVER S-9, PHENOBARBITAL AND BETA-NAPHTHOFLAVONE, Method: PREINCUBATION) is “inactive; negative”; the mutagenic call (Test System: AMES SALMONELLA TYPHIMURIUM, Strain/Indicator: TA1537, Metabolic Activation: RAT LIVER S-9, PHENOBARBITAL AND BETA-NAPHTHOFLAVONE, Method: PREINCUBATION) was “inactive; negative”; the mutagenic call (Test System: E.COLI, Strain/Indicator: WP2UVRA, Metabolic Activation: NONE, Method: PREINCUBATION) was “inactive; negative”; the mutagenic call (Test System: E.COLI, Strain/Indicator: WP2UVRA, Metabolic Activation: RAT LIVER S-9, PHENOBARBITAL AND BETA-NAPHTHOFLAVONE, Method: PREINCUBATION) is “inactive; negative”.

As to `N[C@@H](CSC(F)(F)C(F)F)C(=O)O`, the mutagenic call (Test System: AMES SALMONELLA TYPHIMURIUM, Strain/Indicator: TA100, Metabolic Activation: RAT, KIDNEY, S-9, AROCLOR 1254, Method: STANDARD PLATE) is “inactive; negative” and the mutagenic call (Test System: AMES SALMONELLA TYPHIMURIUM, Strain/Indicator: TA2638, Metabolic Activation: NONE, Method: PREINCUBATION) is “inactive; negative”.

As to `CCc1ccc(N)cc1`, the mutagenic call (Test System: E. COLI, Strain/Indicator: WP2 UVRA, Metabolic Activation: NONE, Method: FLUCTUATION TEST) was “inactive; negative”.

As for `Clc1cccc(Cl)c1`, the mutagenic call was “inactive; negative” (Test System: AMES SALMONELLA TYPHIMURIUM, Strain/Indicator: TA98, Metabolic Activation: HAMSTER, LIVER, S-9, AROCLOR 1254, Method: PREINCUBATION); “inactive; negative” under setting [1]; “inactive; negative” under setting [5]; “inactive; negative” (Test System: AMES SALMONELLA TYPHIMURIUM, Strain/Indicator: TA98, Metabolic Activation: RAT, LIVER, S-9, AROCLOR 1254, Method: PREINCUBATION); “inactive; negative” (Test System: AMES SALMONELLA TYPHIMURIUM, Strain/Indicator: TA98, Metabolic Activation: RAT, LIVER, S-9, AROCLOR, Method: STANDARD PLATE); “inactive; negative” (Test System: AMES SALMONELLA TYPHIMURIUM, Strain/Indicator: TA100, Metabolic Activation: HAMSTER, LIVER, S-9, AROCLOR 1254, Method: PREINCUBATION). In addition, the mutagenic call is, setting by setting: under setting [2], “inactive; negative”; under setting [6], “inactive; negative”; (Test System: AMES SALMONELLA TYPHIMURIUM, Strain/Indicator: TA100, Metabolic Activation: RAT, LIVER, S-9, AROCLOR 1254, Method: PREINCUBATION) “inactive; negative”; (Test System: AMES SALMONELLA TYPHIMURIUM, Strain/Indicator: TA100, Metabolic Activation: RAT, LIVER, S-9, AROCLOR, Method: STANDARD PLATE) “inactive; negative”; (Test System: AMES SALMONELLA TYPHIMURIUM, Strain/Indicator: TA1535, Metabolic Activation: HAMSTER, LIVER, S-9, AROCLOR 1254, Method: PREINCUBATION) “inactive; negative”; under setting [3], “inactive; negative”. In addition, the mutagenic call reads like this: (Test System: AMES SALMONELLA TYPHIMURIUM, Strain/Indicator: TA1535, Metabolic Activation: RAT, LIVER, S-9, AROCLOR 1254, Method: PREINCUBATION) “inactive; negative”; (Test System: AMES SALMONELLA TYPHIMURIUM, Strain/Indicator: TA1537, Metabolic Activation: HAMSTER, LIVER, S-9, AROCLOR 1254, Method: PREINCUBATION) “inactive; negative”; under setting [4], “inactive; negative”; (Test System: AMES SALMONELLA TYPHIMURIUM, Strain/Indicator: TA1537, Metabolic Activation: RAT, LIVER, S-9, AROCLOR 1254, Method: PREINCUBATION) “inactive; negative”; (Test System: AMES SALMONELLA TYPHIMURIUM, Strain/Indicator: UTH8413, Metabolic Activation: NONE, Method: STANDARD PLATE) “inactive; negative”; (Test System: AMES SALMONELLA TYPHIMURIUM, Strain/Indicator: UTH8413, Metabolic Activation: RAT, LIVER, S-9, AROCLOR, Method: STANDARD PLATE) “inactive; negative”. Moreover, the mutagenic call is “inactive; negative” (Test System: AMES SALMONELLA TYPHIMURIUM, Strain/Indicator: UTH8414, Metabolic Activation: NONE, Method: STANDARD PLATE) and “inactive; negative” (Test System: AMES SALMONELLA TYPHIMURIUM, Strain/Indicator: UTH8414, Metabolic Activation: RAT, LIVER, S-9, AROCLOR, Method: STANDARD PLATE).
